Laboratory results reported in PMC5785490, “Retinoic acid prevents immunogenicity of milk lipocalin Bos d 5 through binding to its immunodominant T-cell epitope” (Scientific Reports, 2018).

Biological target: T1, Bos d 5 (bovine beta-lactoglobulin) (Bos taurus, UniProt P02754)
T1 construct: gene LGB; commercially available bovine beta-lactoglobulin (L0130, Sigma); globular protein of 162 amino acid residues
Experiment: intrinsic tryptophan fluorescence quenching (pH […] °C), supported by ANS displacement assay
Format: binding

T1 sequence (P02754 17-178): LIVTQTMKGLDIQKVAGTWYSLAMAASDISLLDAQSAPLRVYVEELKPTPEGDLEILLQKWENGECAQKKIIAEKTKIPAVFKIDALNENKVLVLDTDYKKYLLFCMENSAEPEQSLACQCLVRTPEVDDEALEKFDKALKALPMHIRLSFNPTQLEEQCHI

Compound CC1=C(/C=C/C(C)=C/C=C/C(C)=C/C(=O)O)C(C)(C)CCC1 [RA, all trans-retinoic acid] has a Kd of 6.1 µM.
